{"source": "patent EP1263420B1", "about": "(priority 2000, dated 2001)", "format_in_all_cases": "in vivo", "key": {"[1]": {"test_system": "TGase II", "test": "TGase II assay of rat liver tissue after inhaled 13-cis RA (experiment B)", "conditions": "for TGase II assay / TGase II assay DPM/µg protein: rat liver", "procedure": "(§1) Male rats (n=23) (Sprague-Dawley from Charles River) were divided into six experimental groups and were given varying amounts of 13-cis RA through an inhalant apparatus once daily for different times each day for 14 days. The experimental groups were as follows (Table 1) :1.Vehicle control : rats (3) inhaled vehicle for 240 minutes; 2. Low dose 13-cis RA: rats (4) inhaled a solution containing 13-cis RA at a concentration of 62.2µg/liter (inhaled dose 115.0µg/kg body weight) in 5 minutes; 3. Low-Middle dose 13-cis RA : rats (4) inhaled a solution containing 13-cis RA at a concentration of 62.2µg/liter (inhaled dose 334.4µg/kg body weight) in 15 minutes; 4.Middle dose 13-cis RA: rats (4) inhaled a solution containing 13-cis RA at a concentration of 62.2µg/liter (inhaled dose 1012.3µg/kg body weight) in 45 minutes; 5. Middle-High dose 13-cis RA : rats (4) inhaled a solution containing 13-cis RA at a concentration of 62.2µg/liter (inhaled dose 2843.4µg/kg body weight) in 120 minutes; 6. High dose 13-cis RA : rats (4) inhaled a solution containing 13-cis RA at a concentration of 62.2µg/liter (inhaled dose 5935.6µg/kg body weight) in 240 minutes.\nFor liver tissue, a piece of approximately 100-400mg was used. Tissue was diced in small pieces and homogenized in approximately 2 volumes of scraping buffer for 2-3 minutes at 4°C. Samples were centrifuged at 14,000xg for 30 minutes at 4°C. The supernatant was removed and kept in ice until used.\nEnzyme assay mixtures were prepared by adding 80µl of SUBSTRATE mixture (322.8µl H2O, 120µl 0.5M NaBorate, 60µl 0.01M EDTA, 60µl 0.1M CaCl2, 6µl 1M DTT, 240µl dimethyl casein, 30µl Triton X-100, 1.2µl [^3H]-Putrescine, 120µl Putrescine) to 20µl sample, 20µl scraping buffer for blank control , 20 µl (18µl scraping buffer + 2µl TGase II) for positive control. Samples were mixed in 15ml tubes, the tubes were shaken before putting them into a 28°C water bath for 30 minutes. Reactions were slowed down in an ice bath. 80µl of the incubation mixture was adsorbed onto paper disks. These were immediately dropped into cold 10% TCA (0.1% Putrescine) and washed with agitation for 7 minutes, followed by 2 additional washes with 5% TCA (0.05% putrescine) for 5~7 minutes, and once more with cold (-20°C) 95% ethanol for 5 minutes. Paper disks were dried and placed into 5ml Aquasol, and counted in a Liquid Scintillation Counter. Protein concentration determination was conducted by the Bradford method."}, "[2]": {"test_system": "RAR α", "test": "Western blot of rat lung tissue after inhaled 13-cis RA", "conditions": "for upregulating expression of lung tissue RAR (α): daily deposited dose of 6.4mg/kg/day", "procedure": "(§2) Rats (n=97) (Sprague-Dawley from Charles River) were divided into five experimental groups and were given varying amounts of 13-cis RA by inhalation. The experimental groups were as follows (Table 4) :1.Vehicle (10/9 mix of PEG 300 and Ethanol with 0.5% of ascorbic acid and 0.5% phosphatidyl choline) control, day 1: rats (19) inhaled vehicle for 2 hr for one day; 2. High dose 13-cis RA, day 1: rats (22) inhaled a solution containing 13-cis-RA at a concentration of 104µg/liter (projected daily inhaled dose 10mg/kg body weight) for 2 hr for one day; 3. High dose 13-cis RA, day 17: rats (22) inhaled the same solution as in 2 for 2 hr each day for 17 days; 4. Vehicle control, day 28: rats (16) inhaled vehicle as for group 1 for a period of 28 days; 5. Middle dose 13-cis RA, day 28: rats (18) inhaled a solution containing 13-cis-RA at a concentration of 31µg/liter (projected daily inhaled dose 3mg/kg body weight) for 2 hr for each of 28 days.\nas §1\n(§3) Polyclonal rabbit anti-mouse antibodies against RAR, and (SANTA CRUZ Biotechnology Inc., San Francisco, CA) were used. BM Chemiluminescense Western Blotting Kit (Mouse/Rabbit) was used (Boehringer Mannheim Corporation, Indianapolis) for the Westerns.\n(§4) Tissues were collected, frozen in dry ice and kept at -70°C until used. 500mg aliquots were diced in small pieces and homogenized in 300µl of cold PBS, using the hand held homogenizer for 2~3 minutes. Sample and washes were centrifuged at 5000xg for 20 minutes. The pellet was suspended in 400 µl of ice-cold Buffer A [2µl 0.5M EDTA, 10µl 100mM EGTA, 50µl 100mM PMSF, 10µl 1M DTT, 10ml (10mM HEPES pH 7.9 + 10mM KCl)], and left at ice temperature for 15 minutes. 25 µl of 10% solution of NP-40 was added and samples were mixed in a vortex vigorously for 10 seconds. Samples were centrifuged at 14,000xg for 1 minute at 4°C and the pellet treated once more in this fashion (resuspended etc.). The supernatant was removed and 100µl of ice-cold Buffer C [4µl 0.5M EDTA, 20µl 100mM EGTA, 20µl 100mM PMSF, 2µl 1 M DTT, 2ml (20mM HEPES pH 7.9 + 0.4M NaCl)] was added. Pellets were resuspended by tapping gently on the bottom of the Eppendorf tubes. Samples were rocked vigorously in a bucket of ice on an orbital shaker for 30 minutes. Samples were centrifuged at 14,000 xg for 5 minutes at 4°C. Protein determination of supernatant was conducted by the Bradford method.\n(§5) Samples were prepared by adding one part of the Sample Buffer to one part of the sample and mixing well. Samples were heated at 95°C for 5 minutes to induce denaturation. 5µl of Rainbow Standard and 5µl ofBiotinylated Molecular Marker were added to parallel wells. 20µg protein per sample was loaded in each lane. Electrophoresis was performed with voltage set at 125V for about 1 ~ 1.5 hours. Gel transfer was executed at 25V for 2 hours. […]"}, "[3]": {"test_system": "RAR β", "test": "Western blot of rat lung tissue after inhaled 13-cis RA", "conditions": "for upregulating expression of lung tissue RAR (β): daily deposited dose of 6.4mg/kg/day", "procedure": "as §2, §1, §3, §4, §5"}, "[4]": {"test_system": "RAR γ", "test": "Western blot of rat lung tissue after inhaled 13-cis RA", "conditions": "for upregulating expression of lung tissue RAR (γ): daily deposited dose of 6.4mg/kg/day", "procedure": "as §2, §1, §3, §4, §5"}, "[5]": {"test_system": "liver RARs", "test": "Western blot of rat liver samples after inhaled 13-cis RA", "procedure": "as §2\nas §1, with “minutes. […]” for “minutes.”"}, "[6]": {"test": "Body weight, mortality and toxicity of A/J mice exposed to isotretinoin aerosols", "quoted_text": "Mice were injected with one of three carcinogens and were exposed by inhalation in groups of 21 to three graded concentrations of isotretinoin or vehicle for 10 (urethane-treated mice) or 16 (NNK- and BaP-treated mice) weeks.\nMale A/J mice (Jackson Laboratories) 6-8 weeks old were quarantined a minimum of 7 days. […] At 9-10 weeks of age, the mice were administered single 0.2 ml doses (20 mg urethane in saline, 0.6 mg of NNK in saline, or 2 mg of BaP in tricaprylin) by intraperitoneal injection. Daily 45-min exposures to isotretinoin aerosol or vehicle were started the next day.\nSolutions were aerosolized using a Pari LC-plus nebulizer (Pari, Richmond, VA). Animals were exposed in nose-only exposure units designed to provide a fresh supply of the test atmosphere to each animal, independent from other animals. […] The units consisted of multi-tier modular sections, each tier containing eight exposure ports located peripherally around a central delivery plenum. During exposures, animals were restrained in unstoppered polycarbonate tubes (C&H Technologies, Westwood, NJ) through which a flow of aerosol, 350-500 ml/min per mouse, passed from the chamber. The tubes were tapered on one end to approximately fit the shape of the animal's head and the diameter of the cylindrical portion of the cone was such that the animals could not turn in the cones. Each cone was fastened to the inhalation chamber with the nose portion of the cone protruding through a gasket into the chamber, permitting the animal to breathe the test or control atmosphere emanating from within the central plenum."}, "[7]": {"conditions": "High: 240 minutes daily 14 Days, 1872µg/kg total deposited dose"}, "[8]": {"conditions": "Low-Middle: 15 minutes daily 14 Days, 117µg/kg total deposited dose"}, "[9]": {"conditions": "Middle-High: 120 minutes daily 14 Days, 936µg/kg total deposited dose"}, "[10]": {"conditions": "Middle: 45 minutes daily 14 Days, 351µg/kg total deposited dose"}, "[11]": {"conditions": "daily deposited dose of 1.9mg/kg/day, day 28"}}, "note": "Several values for one entry are separate records, joined by “and”; a condition that tells them apart may be missing. Equal entries are not always repeated. Entries after “also recorded” stand apart in the source; their conditions may differ."}
{"smiles": "CC1=C(/C=C/C(C)=C/C=C/C(C)=C\\C(=O)O)C(C)(C)CCC1", "note": "[13-cis RA, 13-cis-Retinoic Acid]", "values": [{"measurement": "effect on liver TGase II activity", "setting": "[1]; inhaled, up to 5.93mg/kg of inhaled dose", "result": "no significant effect"}, {"measurement": "TGase II assay", "setting": "[1]; [7]", "result": "0.271 +/- 0.015 picomoles/µg protein/30 min and 0.271 ± 0.015 picomoles/µg protein/30 min"}, {"measurement": "TGase II assay DPM/µg protein", "setting": "[1]; [7]", "result": 19719, "unit": "DPM/µg protein"}, {"measurement": "TGase II assay", "setting": "[1]; [8]", "result": "0.273 +/- 0.018 picomoles/µg protein/30 min and 0.273 ± 0.018 picomoles/µg protein/30 min"}, {"measurement": "TGase II assay DPM/µg protein", "setting": "[1]; [8]", "result": 21448, "unit": "DPM/µg protein"}, {"measurement": "TGase II assay DPM/µg protein", "setting": "[1]; Low: 5 minutes daily 14 Days, 39µg/kg total deposited dose", "result": 22705, "unit": "DPM/µg protein"}, {"measurement": "TGase II assay", "setting": "[1]; Low: 5 minutes daily 14 Days, 39µg/kg total deposited dose, vehicle 0.260", "result": "0.289 +/- 0.007 picomoles/µg protein/30 min and 0.289 ± 0.007 picomoles/µg protein/30 min"}, {"measurement": "TGase II assay", "setting": "[1]; [9]", "result": "0.269 +/- 0.015 picomoles/µg protein/30 min and 0.269 ± 0.015 picomoles/µg protein/30 min"}, {"measurement": "TGase II assay DPM/µg protein", "setting": "[1]; [9]", "result": 20348, "unit": "DPM/µg protein"}, {"measurement": "TGase II assay", "setting": "[1]; [10]", "result": "0.313 +/- 0.025 picomoles/µg protein/30 min and 0.313 ± 0.025 picomoles/µg protein/30 min"}, {"measurement": "TGase II assay DPM/µg protein", "setting": "[1]; [10]", "result": 24590, "unit": "DPM/µg protein"}, {"measurement": "lung RAR (α) induced", "setting": "[2]; [11]", "result": 4.7, "unit": "fold"}, {"measurement": "upregulating expression of lung tissue RAR (α)", "setting": "[2]; day 1", "result": 3.4, "unit": "fold"}, {"measurement": "upregulating expression of lung tissue RAR (α)", "setting": "[2]; day 17", "result": 4.2, "unit": "fold"}, {"measurement": "lung RAR (β) induced", "setting": "[3]; [11]", "result": 8.0, "unit": "fold"}, {"measurement": "upregulating expression of lung tissue RAR (β)", "setting": "[3]; day 1", "result": 7.2, "unit": "fold"}, {"measurement": "upregulating expression of lung tissue RAR (β)", "setting": "[3]; day 17", "result": 10.0, "unit": "fold"}, {"measurement": "lung RAR (γ) induced", "setting": "[4]; [11]", "result": 8.1, "unit": "fold"}, {"measurement": "upregulating expression of lung tissue RAR (γ)", "setting": "[4]; day 1", "result": 9.7, "unit": "fold"}, {"measurement": "upregulating expression of lung tissue RAR (γ)", "setting": "[4]; day 17", "result": 12.9, "unit": "fold"}, {"measurement": "effect on liver RARs", "setting": "[5]; inhaled 13-cis RA, rats, summary statement", "result": "failed to have any significant effect on liver RARs; also recorded: has no effect on liver RARs"}, {"measurement": "increase in liver RARs", "setting": "[5]; rat liver, experiment A (same rats as Fig 2A), not shown", "result": "failed to show any increase in RARs"}, {"measurement": "response of liver RARs", "setting": "[5]; rat liver, experiment B, 5 to 240 minutes daily, 14 days, not shown", "result": "not responsive"}, {"measurement": "tolerated until (mice began losing weight)", "setting": "[6]; mid dose", "result": "~ 12 wks"}, {"measurement": "weights below those of vehicle controls", "setting": "[6]; mid dose, NNK- and BaP-treated mice, end of exposure", "result": 11, "unit": "%"}, {"measurement": "mortality", "setting": "[6]; mouse, in vivo, inhaled or intranasal, 0.081 mg/kg, mid dose (2/63), read-out: mice died before the end of exposure", "result": 3, "unit": "%"}, {"measurement": "mortality at 336 h", "setting": "[6]; mouse, in vivo, inhaled or intranasal, 2 mg/kg, high dose, daily exposures for the first two weeks, read-out: mice died", "result": "~35", "unit": "%"}]}
